# Marks after values point to notes of the source that are not given here.
# Key:
# [1] = Drug-drug interaction, single dose CTB 400 mg + LED-E 500 mg, cross-over (VNRX-7145-102 Part 1); settings: human, plasma, oral
# [2] = Urinary pharmacokinetics on Day 10 after multiple doses of LED-E q8h; type: in vivo, human; settings: urine, geometric mean (geometric CV %); for CL renal: human, oral
# Procedure: Quantitation used separate weighted 1 /x^2 linear least-squares regression analyses generated from calibration standards. Exploratory screening for metabolites was performed for some samples. […] Plasma pharmacokinetic parameters were calculated using noncompartmental analysis of the plasma and urine concentration-time data. […] AUCinf and Cmax were natural log-transformed before analysis, using a linear mixed effects model. […] In both studies, plasma pharmacokinetic parameters were calculated using WinNonlin (Certara; Radnor, PA), and urine pharmacokinetic parameters were calculated using SAS (SAS Institute; Cary, NC).
# [3] = Urinary pharmacokinetics after single doses of LED-E; type: in vivo, human; settings: urine, geometric mean (geometric CV %); for CL renal: human, oral
# Procedure: Plasma and urine pharmacokinetics samples were assayed for LED-E, LED, and CTB, as appropriate using validated bioanalytical methods. […] Quantitation used separate weighted 1 /x^2 linear least-squares regression analyses generated from calibration standards. Exploratory screening for metabolites was performed for some samples. In both studies, plasma pharmacokinetic parameters were calculated using WinNonlin (Certara; Radnor, PA), and urine pharmacokinetic parameters were calculated using SAS (SAS Institute; Cary, NC).
# [4] = Plasma pharmacokinetics after single ascending doses of LED-E (VNRX-7145-101 Part 1); type: in vivo; settings: human, oral; for Vd/F: read-out: Vz/F; for Tmax: median (range)
# Procedure: (§1) Quantitation used separate weighted 1 /x^2 linear least-squares regression analyses generated from calibration standards. Exploratory screening for metabolites was performed for some samples. […] Single-dose plasma pharmacokinetic parameters were determined in Part 1, and both single-dose (Day 1) and multiple-dose (Day 12) parameters were determined in Part 2. […] Dose proportionality was analyzed using a power model in which pharmacokinetic exposure parameters and dose were converted to the natural log and linear regression results were reported, with the slope as the power estimate ([15]). […] In Part 2, achievement of steady-state concentrations was assessed using Tukey’s multiple comparison test for pre-dose and all dosing days (Days 2 to 10) for each dose level separately. In both studies, plasma pharmacokinetic parameters were calculated using WinNonlin (Certara; Radnor, PA), and urine pharmacokinetic parameters were calculated using SAS (SAS Institute; Cary, NC).
# [5] = Plasma pharmacokinetics on Day 10 after multiple doses of LED-E q8h (VNRX-7145-101 Part 2, VNRX-7145-102 Part 2); type: in vivo, human; settings: human, oral, plasma; for AUC / Cmax / Vd/F / half-life: geometric mean (CV %); for Vd/F: read-out: Vz/F; for Tmax: median (range); for half-life: read-out: t1/2 (converted)
# Procedure: as §1, with “Single-dose plasma pharmacokinetic parameters were determined in Part 1, and both single-dose (Day 1) and multiple-dose (Day 12) parameters were determined in Part 2.” left out, “separately. […] Plasma pharmacokinetic parameters were calculated using noncompartmental analysis of the plasma and urine concentration-time data. […] AUCinf and Cmax were natural log-transformed before analysis, using a linear mixed effects model. […]” for “separately.”
# [6] = Plasma pharmacokinetics on Day 10 after multiple doses of CTB + LED-E q8h (VNRX-7145-102 Part 3); settings: for AUC: AUCtau; for AUC / Cmax / half-life: geometric mean (CV %)
# [7] = Urinary recovery on Day 10 after multiple doses of CTB + LED-E q8h (VNRX-7145-102 Part 3); settings: for Ae0–8 / Fe0–8 / CL renal: urine, geometric mean (geometric CV %); for CL renal: human, oral, CLr
# [8] = multiple doses LED-E 500 mg q8h, after last dose (Day 10)
# [9] = 1000 mg, single dose LED-E 1,000 mg, geometric mean (CV %)
# [10] = single dose LED-E 100 mg, geometric mean (CV %)
# [11] = single dose LED-E 200 mg, geometric mean (CV %)
# [12] = single dose LED-E 300 mg, geometric mean (CV %)
# [13] = single dose LED-E 500 mg, geometric mean (CV %)
# [14] = single dose LED-E 800 mg, geometric mean (CV %)
# [15] = human, oral, Day 10, CTB 400 mg + LED-E 300 mg q8h
# [16] = human, oral, Day 10, CTB 400 mg + LED-E 500 mg q8h
# [17] = Day 10, CTB 400 mg + LED-E 300 mg q8h
# [18] = Day 10, CTB 400 mg + LED-E 500 mg q8h
compound,measurement,setting,value
CCC(=O)N[C@H]1Cc2cccc(C(=O)OCOC(=O)C(CC)CC)c2OB1O [Ledaborbactam etzadroxil],AUC(0-inf),[1],1070 ng·h/mL
same,Cmax,[1],787 ng/mL
same,AUC(0-inf),[1]; 500 mg,1140 ng·h/mL
same,Cmax,[1]; 500 mg,1040 ng/mL
same,CL renal,[2]; multiple doses LED-E 150 mg q8h,0.247 mL/min
same,CL renal,[2]; multiple doses LED-E 300 mg q8h,0.121 mL/min
same,CL renal,[2]; multiple doses LED-E 500 mg q8h,0.433 mL/min
same,Ae0–48,"[2]; multiple doses LED-E 75 mg q8h, after last dose (Day 10)",below the limit of quantification
same,Ae0–48,"[2]; multiple doses LED-E 150 mg q8h, after last dose (Day 10)",0.00488 (47.9) mg
same,Ae0–48,"[2]; multiple doses LED-E 300 mg q8h, after last dose (Day 10)",0.00378 (218) mg
same,Ae0–8,[2]; [8],0.0273 (38.5) mg
same,Ae0–48,[2]; [8],0.0273 (38.5) mg
same,Ae0–48,"[2]; multiple doses LED-E 500 mg q8h, after last dose (Day 10), listed as LED-E",0.03 mg
same,CL renal,[3]; single dose LED-E 300 mg,0.22 mL/min
same,CL renal,[3]; single dose LED-E 500 mg,0.275 mL/min
same,CL renal,[3]; single dose LED-E 800 mg,0.292 mL/min
same,CL renal,[3]; single dose LED-E 1000 mg,0.393 mL/min
same,Ae0–8,[3]; single dose LED-E 300 mg,0.00779 (51.0) mg
same,Ae0–8,[3]; single dose LED-E 500 mg,0.0212 (38.4) mg
same,Ae0–48,[3]; single dose LED-E 500 mg,0.0212 (38.4) mg
same,Ae0–8,[3]; single dose LED-E 800 mg,0.0301 (49.2) mg
same,Ae0–48,[3]; single dose LED-E 800 mg,0.0301 (49.2) mg
same,Ae0–8,[3]; single dose LED-E 1000 mg,0.0542 (68.6) mg
same,Ae0–48,[3]; single dose LED-E 1000 mg,0.0542 (68.6) mg
same,AUC(0-inf),[4]; [9],2300 ng·h/mL
same,Cmax,[4]; [9],1840 ng/mL
same,Vd/F,[4]; [9],2880 L
same,half-life,"[4]; 1000 mg, single dose LED-E 1,000 mg, geometric mean (CV %), read-out: t1/2 (converted)",275 min
same,half-life,"[4]; across single doses LED-E 100 to 1,000 mg, read-out: Geometric mean t1/2",168 to 282 min
same,AUC(0-inf),[4]; [10],177 ng·h/mL
same,Cmax,[4]; [10],167 ng/mL
same,Vd/F,[4]; [10],2290 L
same,half-life,"[4]; single dose LED-E 100 mg, geometric mean (CV %), read-out: t1/2 (converted)",169 min
same,Tmax,[4]; single dose LED-E 100 mg,30 min
same,AUC(0-inf),[4]; [11],249 ng·h/mL
same,Cmax,[4]; [11],167 ng/mL
same,half-life,"[4]; single dose LED-E 200 mg, geometric mean (CV %), read-out: t1/2 (converted)",200 min
same,Tmax,[4]; single dose LED-E 200 mg,30 min
same,AUC(0-inf),[4]; [12],439 ng·h/mL
same,Cmax,[4]; [12],347 ng/mL
same,half-life,"[4]; single dose LED-E 300 mg, geometric mean (CV %), read-out: t1/2 (converted)",218 min
same,Tmax,[4]; single dose LED-E 300 mg,30 min
same,AUC(0-inf),[4]; [13],1290 ng·h/mL
same,Cmax,[4]; [13],917 ng/mL
same,Vd/F,[4]; [13],2640 L
same,half-life,"[4]; single dose LED-E 500 mg, geometric mean (CV %), read-out: t1/2 (converted)",282 min
same,AUC(0-inf),[4]; [14],1720 ng·h/mL
same,Cmax,[4]; [14],1160 ng/mL
same,Vd/F,[4]; [14],2260 L
same,half-life,"[4]; single dose LED-E 800 mg, geometric mean (CV %), read-out: t1/2 (converted)",202 min
same,Tmax,[4]; single dose LED-E 800 mg,30 min
same,AUC,"[5]; Day 10, LED-E 75 mg q8h, 0 to 8 h post-dose",85.5 ng·h/mL
same,Cmax,"[5]; Day 10, LED-E 75 mg q8h",122 ng/mL
same,Vd/F,"[5]; Day 10, LED-E 75 mg q8h",3880 L
same,Tmax,"[5]; Day 10, LED-E 75 mg q8h",30 min
same,AUC,"[5]; Day 10, LED-E 150 mg q8h",309 ng·h/mL
same,Cmax,"[5]; Day 10, LED-E 150 mg q8h",447 ng/mL
same,Vd/F,"[5]; Day 10, LED-E 150 mg q8h",3350 L
same,Tmax,"[5]; Day 10, LED-E 150 mg q8h",30 min
same,AUC,"[5]; Day 10, LED-E 300 mg q8h",480 ng·h/mL
same,Cmax,"[5]; Day 10, LED-E 300 mg q8h",629 ng/mL
same,Vd/F,"[5]; Day 10, LED-E 300 mg q8h",6080 L
same,Tmax,"[5]; Day 10, LED-E 300 mg q8h",30 min
same,AUC,"[5]; Day 10, LED-E 500 mg q8h",1050 ng·h/mL
same,Cmax,"[5]; Day 10, LED-E 500 mg q8h",919 ng/mL
same,Vd/F,"[5]; Day 10, LED-E 500 mg q8h",6290 L
same,half-life,"[5]; 75 mg, Day 10, LED-E 75 mg q8h",184 min
same,half-life,"[5]; 150 mg, Day 10, LED-E 150 mg q8h",287 min
same,half-life,"[5]; 300 mg, Day 10, LED-E 300 mg q8h",405 min
same,half-life,"[5]; 500 mg, Day 10, LED-E 500 mg q8h",548 min
same,Change in geometric mean AUCtau from the first to the last dose,"[6]; Day 10, CTB 400 mg + LED-E 300 or 500 mg q8h, both dose groups",unchanged
same,AUC,[6]; [15],463 ng·h/mL
same,AUC,[6]; [16],1090 ng·h/mL
same,Cmax,[6]; [15],467 ng/mL
same,Cmax,[6]; [16],1180 ng/mL
same,Tmax,"[6]; human, oral, Tmax, Day 10, CTB 400 mg + LED-E 300 mg q8h, median (range)",30 min
same,half-life,"[6]; human, oral, t1/2, Day 10, CTB 400 mg + LED-E 300 mg q8h",461 min
same,half-life,"[6]; human, oral, t1/2, Day 10, CTB 400 mg + LED-E 500 mg q8h",642 min
same,Ae0–8,[7]; [17],0.0113 (41.4) mg
same,Fe0–8,[7]; [17],0.00377 (41.4) %
same,Ae0–8,[7]; [18],0.0271 (58.4)^d mg
same,Fe0–8,[7]; [18],0.00542 (58.4)^d %
same,"Fe0-8 recovered in urine, of the last dose","[7]; Day 10, across CTB 400 mg + LED-E 300 mg q8h and CTB 400 mg + LED-E 500 mg q8h",less than 0.01%
same,CL renal,[7]; [17],0.402 mL/min
same,CL renal,[7]; [18],0.42 mL/min
